The source of these data is ChEMBL document CHEMBL4706658, “Discovery and Biological Evaluation of N-Methyl-pyrrolo[2,3-b]pyridine-5-carboxamide Derivatives as JAK1-Selective Inhibitors” (J Med Chem, 2021).

In data set [1] the target is T1, Tyrosine-protein kinase JAK2 (Homo sapiens, UniProt O60674). As to conditions: BaF3.
Description: Inhibition of JAK2 (unknown origin) transfected in mouse BAF3 cells assessed as cell growth inhibition incubated for 72 hrs by CCK8 assay
The target in data set [2] is T2, Non-receptor tyrosine-protein kinase TYK2 (Homo sapiens, UniProt P29597). The settings on record: BaF3.
Description: Inhibition of TYK2 (unknown origin) transfected in mouse BAF3 cells assessed as cell growth inhibition incubated for 72 hrs by CCK8 assay
Data set [3] concerns the target T3, Tyrosine-protein kinase JAK3 (Homo sapiens) (UniProt P52333).
T3 sequence (whole entry): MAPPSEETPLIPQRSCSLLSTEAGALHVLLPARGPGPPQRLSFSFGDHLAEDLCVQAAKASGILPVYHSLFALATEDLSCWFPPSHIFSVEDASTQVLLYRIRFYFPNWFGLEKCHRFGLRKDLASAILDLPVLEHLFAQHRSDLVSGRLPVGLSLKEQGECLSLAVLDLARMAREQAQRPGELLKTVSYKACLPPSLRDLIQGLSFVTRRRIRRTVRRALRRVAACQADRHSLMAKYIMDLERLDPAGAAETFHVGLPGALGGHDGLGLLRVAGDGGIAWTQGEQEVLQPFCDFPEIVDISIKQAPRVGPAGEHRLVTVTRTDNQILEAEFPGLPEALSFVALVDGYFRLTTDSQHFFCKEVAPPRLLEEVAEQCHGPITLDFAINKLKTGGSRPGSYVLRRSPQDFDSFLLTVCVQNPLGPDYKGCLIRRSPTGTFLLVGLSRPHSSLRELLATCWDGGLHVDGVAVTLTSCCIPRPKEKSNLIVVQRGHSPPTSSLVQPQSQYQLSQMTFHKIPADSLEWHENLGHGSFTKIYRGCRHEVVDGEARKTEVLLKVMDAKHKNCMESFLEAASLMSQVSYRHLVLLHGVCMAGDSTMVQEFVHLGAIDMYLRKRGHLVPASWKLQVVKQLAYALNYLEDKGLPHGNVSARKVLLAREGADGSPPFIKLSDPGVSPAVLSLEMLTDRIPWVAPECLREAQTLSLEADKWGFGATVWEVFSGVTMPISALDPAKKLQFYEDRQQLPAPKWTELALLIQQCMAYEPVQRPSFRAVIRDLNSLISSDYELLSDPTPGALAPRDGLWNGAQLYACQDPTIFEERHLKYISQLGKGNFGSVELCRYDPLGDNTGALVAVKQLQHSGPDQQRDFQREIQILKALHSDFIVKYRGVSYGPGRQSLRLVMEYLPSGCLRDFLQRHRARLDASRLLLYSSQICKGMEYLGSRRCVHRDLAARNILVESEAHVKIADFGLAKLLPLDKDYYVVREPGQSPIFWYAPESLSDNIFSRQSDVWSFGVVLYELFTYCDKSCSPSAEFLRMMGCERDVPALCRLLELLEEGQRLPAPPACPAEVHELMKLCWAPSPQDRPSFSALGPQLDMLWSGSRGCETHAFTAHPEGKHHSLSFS
As to conditions: BaF3.
Description: Inhibition of JAK3 (unknown origin) transfected in mouse BAF3 cells assessed as cell growth inhibition incubated for 72 hrs by CCK8 assay

Data set [4] addresses T4, Tyrosine-protein kinase JAK1 (Homo sapiens, UniProt P23458). As to conditions: BaF3.
Description: Inhibition of JAK1 (unknown origin) transfected in mouse BAF3 cells assessed as cell growth inhibition incubated for 72 hrs by CCK8 assay
Data set [5] has as its target T4, Tyrosine-protein kinase JAK1.
Description: Inhibition of recombinant JAK1 (unknown origin) using GFP-STAT1 as substrate incubated for 1 hr followed by anti-pSTAT1 antibody addition and measured after 30 mins by Lanthascreen TR-FRET assay
Data set [6] addresses T2, Non-receptor tyrosine-protein kinase TYK2.
Description: Inhibition of recombinant TYK2 (unknown origin) using GFP-STAT1 as substrate incubated for 1 hr followed by anti-pSTAT1 antibody addition and measured after 30 mins by Lanthascreen TR-FRET assay
Data set [7] deals with LX2. As to conditions: Homo sapiens, dose 500.0 nM.
The test system of data set [8] is LX2. The settings on record: Homo sapiens, dose 500.0 nM. The source holds these as a separate data set.
Data set [9] has as its system LX2. As to conditions: Homo sapiens, dose lower […], dose upper 500.0 nM.
Data set [10] relates to LX2. As to conditions: Homo sapiens, dose 500.0 nM. This is another data set of the same source.
The target in data set [11] is T1, Tyrosine-protein kinase JAK2.
Description: Inhibition of recombinant JAK2 (unknown origin) using GFP-STAT1 as substrate incubated for 1 hr followed by anti-pSTAT1 antibody addition and measured after 30 mins by Lanthascreen TR-FRET assay
Data set [12] addresses Vascular endothelial growth factor receptor 1 (Homo sapiens, UniProt P17948).
In data set [13] the target is CYP2C9 (Homo sapiens, UniProt P11712). As to the kind of experiment: in vitro.
Description: Inhibition of CYP2C9 (unknown origin) at 10 uM relative to control
Data set [14] is described as follows: in vitro. As to conditions: human, lx2.
Data set [15] is described as follows: in vitro. The settings on record: mouse, microsomes.
Description: Metabolic stability in mouse liver microsomes assessed as parent compound remaining at 10 uM measured after 30 mins relative to control
The target of data set [16] is CYP3A4 (Homo sapiens, UniProt P08684). As to the kind of experiment: in vitro.
Data set [17] can be described thus: in vitro. The settings on record: rat, microsomes.
Description: Metabolic stability in rat liver microsomes assessed as parent compound remaining at 10 uM measured after 30 mins relative to control
Data set [18] deals with CYP2D6 (Homo sapiens, UniProt P10635). Description: in vitro.
Description: Inhibition of CYP2D6 (unknown origin) at 10 uM relative to control
Data set [19] can be described thus: in vitro. The settings on record: rat, plasma.
Description: Stability in rat plasma assessed as compound remaining at 2 uM measured after 2 hrs relative to control
Data set [20] can be described thus: cells. Format: functional, LX2. The settings on record: Homo sapiens, LX-2, 72 h; time hrs <=72.
Data set [21] can be described thus: in vitro. The settings on record: dog, MDCK.
Description: Permeability of compound across basolateral to apical side in MDCK cells at 10 uM
The nature of data set [22]: in vitro. The settings on record: human, plasma.
Description: Stability in human plasma assessed as compound remaining at 2 uM measured after 2 hrs relative to control
The target of data set [23] is CYP2C19 (Homo sapiens, UniProt P33261). Description: in vitro.
Description: Inhibition of CYP2C19 (unknown origin) at 10 uM relative to control
The target in data set [24] is T5, CYP1A2 (Homo sapiens, UniProt P05177).
T5 sequence (P05177 whole entry): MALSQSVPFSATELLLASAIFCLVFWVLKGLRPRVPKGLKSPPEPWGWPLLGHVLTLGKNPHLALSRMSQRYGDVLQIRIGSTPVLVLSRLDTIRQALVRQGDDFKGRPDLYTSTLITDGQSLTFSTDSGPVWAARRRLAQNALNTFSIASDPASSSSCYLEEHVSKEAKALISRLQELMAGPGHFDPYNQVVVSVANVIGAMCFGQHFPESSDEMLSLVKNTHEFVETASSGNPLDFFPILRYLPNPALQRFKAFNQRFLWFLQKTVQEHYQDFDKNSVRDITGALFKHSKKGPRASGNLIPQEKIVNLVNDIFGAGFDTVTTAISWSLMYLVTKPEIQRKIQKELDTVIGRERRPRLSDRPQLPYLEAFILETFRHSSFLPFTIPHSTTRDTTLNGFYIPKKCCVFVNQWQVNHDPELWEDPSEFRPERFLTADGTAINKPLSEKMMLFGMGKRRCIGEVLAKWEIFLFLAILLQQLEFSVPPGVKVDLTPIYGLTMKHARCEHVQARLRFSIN
As to the kind of experiment: in vitro.
Description: Inhibition of CYP1A2 (unknown origin) at 10 uM relative to control

Data set [25] is described as follows: in vitro. The settings on record: human, microsomes.
Description: Metabolic stability in human liver microsomes assessed as parent compound remaining at 10 uM measured after 30 mins relative to control
Data set [26] is described as follows: in vitro. As to conditions: dog, MDCK. This is another data set of the same source.
Description: Permeability of compound across apical to basolateral side in MDCK cells at 10 uM

Broadly, the GI50 is the concentration that inhibits growth by half. For orientation: IC50 means the point on the concentration scale where inhibition reaches its midpoint. The term inhibition denotes the share of the control response that was lost under treatment. By amount remaining is commonly meant what is left of the initial amount, in per cent. Low readings indicate a greater loss, high ones greater stability. One may read the Papp B→A as the apparent permeability from the basolateral to the apical side of a cell layer. A word on the Papp A→B: it is how fast a substance crosses the layer from the apical side. Read a low Papp A→B as poor permeation.

Calls of active or inactive are those of the source. The rule behind the calls is not given here.

T1 sequence (O60674 whole entry): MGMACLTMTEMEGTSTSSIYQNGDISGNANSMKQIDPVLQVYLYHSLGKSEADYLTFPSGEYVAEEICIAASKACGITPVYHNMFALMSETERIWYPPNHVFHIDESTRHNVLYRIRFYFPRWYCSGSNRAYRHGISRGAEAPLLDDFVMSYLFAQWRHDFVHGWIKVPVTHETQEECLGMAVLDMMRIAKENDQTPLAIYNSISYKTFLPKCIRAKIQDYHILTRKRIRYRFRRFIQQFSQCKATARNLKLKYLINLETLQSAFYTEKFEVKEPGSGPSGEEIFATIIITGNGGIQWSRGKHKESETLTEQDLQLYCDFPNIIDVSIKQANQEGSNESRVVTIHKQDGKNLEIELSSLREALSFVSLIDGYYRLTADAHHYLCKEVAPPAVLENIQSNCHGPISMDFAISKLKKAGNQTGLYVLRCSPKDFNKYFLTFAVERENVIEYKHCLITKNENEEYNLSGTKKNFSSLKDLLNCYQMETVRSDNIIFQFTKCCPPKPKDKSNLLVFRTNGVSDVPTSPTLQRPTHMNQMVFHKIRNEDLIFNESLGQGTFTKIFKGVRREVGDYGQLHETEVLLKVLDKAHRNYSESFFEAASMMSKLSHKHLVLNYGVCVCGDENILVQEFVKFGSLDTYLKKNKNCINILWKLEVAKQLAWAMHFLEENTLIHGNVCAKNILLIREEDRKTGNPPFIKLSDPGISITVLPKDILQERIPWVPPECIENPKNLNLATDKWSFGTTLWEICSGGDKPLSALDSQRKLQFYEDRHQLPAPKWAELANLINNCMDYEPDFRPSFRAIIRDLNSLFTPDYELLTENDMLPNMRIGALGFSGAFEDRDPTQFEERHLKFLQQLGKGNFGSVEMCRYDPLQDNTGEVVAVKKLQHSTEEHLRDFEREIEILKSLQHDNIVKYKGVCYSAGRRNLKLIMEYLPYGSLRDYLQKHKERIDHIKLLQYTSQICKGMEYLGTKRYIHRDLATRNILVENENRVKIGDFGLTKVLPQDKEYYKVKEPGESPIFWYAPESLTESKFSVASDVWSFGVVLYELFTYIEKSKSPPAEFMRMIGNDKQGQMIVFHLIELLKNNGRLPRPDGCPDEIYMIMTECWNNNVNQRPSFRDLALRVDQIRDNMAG
T2 sequence (P29597 whole entry): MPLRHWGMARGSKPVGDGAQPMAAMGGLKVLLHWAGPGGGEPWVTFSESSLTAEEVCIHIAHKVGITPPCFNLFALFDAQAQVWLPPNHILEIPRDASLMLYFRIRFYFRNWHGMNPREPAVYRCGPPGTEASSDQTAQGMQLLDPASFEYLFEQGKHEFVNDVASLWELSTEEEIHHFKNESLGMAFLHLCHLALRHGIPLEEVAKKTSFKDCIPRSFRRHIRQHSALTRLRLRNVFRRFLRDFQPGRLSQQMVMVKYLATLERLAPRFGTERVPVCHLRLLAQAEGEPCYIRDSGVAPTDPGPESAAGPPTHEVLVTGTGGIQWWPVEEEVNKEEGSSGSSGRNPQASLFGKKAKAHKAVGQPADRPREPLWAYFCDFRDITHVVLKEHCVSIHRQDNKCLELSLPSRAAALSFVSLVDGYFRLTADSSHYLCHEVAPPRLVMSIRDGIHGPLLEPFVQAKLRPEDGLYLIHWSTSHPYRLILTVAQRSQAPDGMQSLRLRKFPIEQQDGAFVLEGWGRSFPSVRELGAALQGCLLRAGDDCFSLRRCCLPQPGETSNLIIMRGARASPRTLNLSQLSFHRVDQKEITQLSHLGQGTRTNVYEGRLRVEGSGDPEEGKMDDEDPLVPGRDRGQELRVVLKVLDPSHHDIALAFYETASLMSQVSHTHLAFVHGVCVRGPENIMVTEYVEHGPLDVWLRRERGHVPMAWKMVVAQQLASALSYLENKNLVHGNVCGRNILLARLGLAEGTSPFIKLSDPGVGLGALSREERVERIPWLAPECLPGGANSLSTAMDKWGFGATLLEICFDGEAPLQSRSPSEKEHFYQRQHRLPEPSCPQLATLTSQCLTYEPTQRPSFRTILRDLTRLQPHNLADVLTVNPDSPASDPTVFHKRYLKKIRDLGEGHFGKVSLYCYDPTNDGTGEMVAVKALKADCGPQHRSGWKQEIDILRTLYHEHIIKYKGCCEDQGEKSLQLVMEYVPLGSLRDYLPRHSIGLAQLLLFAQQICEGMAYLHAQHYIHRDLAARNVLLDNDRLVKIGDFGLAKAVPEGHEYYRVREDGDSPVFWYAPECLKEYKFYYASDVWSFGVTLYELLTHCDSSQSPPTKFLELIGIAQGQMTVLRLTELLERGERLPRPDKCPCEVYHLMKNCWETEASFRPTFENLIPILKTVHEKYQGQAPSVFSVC
T4 sequence (P23458 whole entry): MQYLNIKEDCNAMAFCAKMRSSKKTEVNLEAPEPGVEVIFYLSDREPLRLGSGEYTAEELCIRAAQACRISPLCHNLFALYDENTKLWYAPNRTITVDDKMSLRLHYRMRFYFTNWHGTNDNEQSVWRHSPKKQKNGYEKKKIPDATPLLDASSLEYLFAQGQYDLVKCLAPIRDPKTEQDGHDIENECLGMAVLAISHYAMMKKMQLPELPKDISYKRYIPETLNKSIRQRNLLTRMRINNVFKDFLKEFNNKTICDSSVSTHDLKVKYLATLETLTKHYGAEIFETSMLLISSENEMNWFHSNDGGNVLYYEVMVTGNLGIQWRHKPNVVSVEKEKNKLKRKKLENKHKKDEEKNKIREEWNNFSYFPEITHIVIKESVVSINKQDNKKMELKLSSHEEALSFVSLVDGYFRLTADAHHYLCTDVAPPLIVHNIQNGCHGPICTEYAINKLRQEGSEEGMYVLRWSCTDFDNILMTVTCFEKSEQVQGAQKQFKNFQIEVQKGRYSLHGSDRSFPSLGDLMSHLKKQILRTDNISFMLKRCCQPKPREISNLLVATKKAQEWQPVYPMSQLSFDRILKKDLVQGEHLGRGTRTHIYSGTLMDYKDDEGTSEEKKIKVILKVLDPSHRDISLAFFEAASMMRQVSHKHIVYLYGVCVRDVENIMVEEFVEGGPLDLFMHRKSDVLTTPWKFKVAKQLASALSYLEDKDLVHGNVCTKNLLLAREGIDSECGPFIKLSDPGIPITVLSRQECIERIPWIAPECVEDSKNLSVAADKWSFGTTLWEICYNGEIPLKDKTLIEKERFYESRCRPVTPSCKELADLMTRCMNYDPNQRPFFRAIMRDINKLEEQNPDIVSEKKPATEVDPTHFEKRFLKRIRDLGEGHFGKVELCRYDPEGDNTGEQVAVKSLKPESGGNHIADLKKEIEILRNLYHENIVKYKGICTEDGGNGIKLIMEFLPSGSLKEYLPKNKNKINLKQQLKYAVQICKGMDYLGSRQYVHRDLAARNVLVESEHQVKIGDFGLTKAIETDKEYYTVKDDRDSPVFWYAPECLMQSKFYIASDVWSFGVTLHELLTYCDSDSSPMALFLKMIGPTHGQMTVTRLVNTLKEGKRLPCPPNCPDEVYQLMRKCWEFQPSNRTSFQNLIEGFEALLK
Sequence of Vascular endothelial growth factor receptor 1 (P17948 whole entry): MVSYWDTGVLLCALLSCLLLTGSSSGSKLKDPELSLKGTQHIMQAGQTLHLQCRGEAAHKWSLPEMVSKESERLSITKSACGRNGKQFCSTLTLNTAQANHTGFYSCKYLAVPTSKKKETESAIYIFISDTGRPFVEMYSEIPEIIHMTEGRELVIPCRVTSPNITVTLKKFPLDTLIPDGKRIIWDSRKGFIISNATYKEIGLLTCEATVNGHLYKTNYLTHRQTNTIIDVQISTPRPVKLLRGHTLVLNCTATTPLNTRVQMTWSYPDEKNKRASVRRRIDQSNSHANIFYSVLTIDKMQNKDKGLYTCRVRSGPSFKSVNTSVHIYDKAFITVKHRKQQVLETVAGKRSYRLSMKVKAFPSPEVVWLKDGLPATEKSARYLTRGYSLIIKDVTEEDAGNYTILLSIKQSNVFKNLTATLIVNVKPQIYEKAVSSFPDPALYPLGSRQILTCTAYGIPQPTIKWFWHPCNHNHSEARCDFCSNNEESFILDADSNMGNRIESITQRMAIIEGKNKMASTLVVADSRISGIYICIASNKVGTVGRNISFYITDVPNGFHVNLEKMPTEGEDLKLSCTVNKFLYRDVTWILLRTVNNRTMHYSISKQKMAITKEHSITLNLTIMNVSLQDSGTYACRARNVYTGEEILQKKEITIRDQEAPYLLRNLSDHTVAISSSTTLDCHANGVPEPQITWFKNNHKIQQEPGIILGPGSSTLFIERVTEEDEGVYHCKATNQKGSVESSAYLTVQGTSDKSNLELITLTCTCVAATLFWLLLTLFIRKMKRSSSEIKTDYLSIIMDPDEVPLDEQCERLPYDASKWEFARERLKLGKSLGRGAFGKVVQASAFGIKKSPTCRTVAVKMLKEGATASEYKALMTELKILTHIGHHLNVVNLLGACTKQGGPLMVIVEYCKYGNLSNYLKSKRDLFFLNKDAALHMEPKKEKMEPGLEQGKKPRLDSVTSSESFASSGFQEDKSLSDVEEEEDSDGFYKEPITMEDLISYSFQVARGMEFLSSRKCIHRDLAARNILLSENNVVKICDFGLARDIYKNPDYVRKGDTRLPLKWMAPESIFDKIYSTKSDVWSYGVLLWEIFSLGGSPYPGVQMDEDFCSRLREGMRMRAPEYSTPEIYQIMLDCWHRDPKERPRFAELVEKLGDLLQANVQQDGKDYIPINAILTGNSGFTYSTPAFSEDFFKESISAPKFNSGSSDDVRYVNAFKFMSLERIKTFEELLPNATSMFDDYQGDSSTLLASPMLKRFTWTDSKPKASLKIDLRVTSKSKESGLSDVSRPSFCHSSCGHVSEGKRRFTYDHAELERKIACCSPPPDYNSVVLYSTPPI

On to `CC(=O)Nc1cc(Oc2ccc3c(c2)CCN3C(=O)Nc2ccc(CN3CCN(C)CC3)c(C(F)(F)F)c2)ncn1`, for which the GI50 in data set [1] was 409 nM; in [2], 150 nM; in data set [3] it was 451 nM; in [4] it was 129 nM.
In data set [5], `COc1cccc(CN2CCC(Nc3c(C(N)=O)cnc4[nH]ccc34)CC2)c1` showed an IC50 of 195 nM. In other words, the sub-micromolar range.
With `NC(=O)c1cnc2[nH]ccc2c1NC1CCN(Cc2ccccc2)CC1`, the IC50 in data set [6] is 110 nM. In other words, the sub-micromolar range.
On to `CNC(=O)c1cnc2[nH]ccc2c1N[C@@H]1CCN(Cc2ccc(Cl)cc2)[C@H](C)C1` (relative stereo) [listing 1 of 2 here], for which the GI50 in [2] was determined as 655 nM; in [3], 1360 nM; in data set [4], 10.5 nM. The inhibition result in data set [7], in data set [8], in [9] and in [10] was “Active” each time.
Regarding `O=C(NC1CC1)c1cnc2[nH]ccc2c1NC1CCN(Cc2ccccc2)CC1`, the values for the IC50 in data set [11], in [5] and in [6] were 232 nM, 114 nM and 1350 nM, respectively.
As for `COc1cccc(CN2CCC(Nc3c(C(=O)NC4CC4)cnc4[nH]ccc34)CC2)c1`, the IC50 in [11] was above 10000 nM; in [5], 2960 nM; in [6] it was above 10000 nM.
Take `CNC(=O)c1cnc2[nH]ccc2c1NC1CCN(Cc2ccc(OC)c(OC)c2)CC1`: the results for the IC50 in data set [11] and in data set [5] were above 10000 nM and 8400 nM, respectively.
`CNC(=O)c1cnc2[nH]ccc2c1NC1CCN(Cc2ccc(OC)cc2)CC1`: the results for the IC50 in data set [11] and in data set [5] were 3540 nM and 202 nM, respectively.
As to `CNC(=O)c1cnc2[nH]ccc2c1N[C@@H]1CCN(Cc2cccc(OC)c2)C[C@@H]1F` (relative stereo), the GI50 in [2] was 9650 nM; in [4] it was 214 nM.
The compound `O=C(NC1CCCC1)c1cnc2[nH]ccc2c1NC1CCN(Cc2ccccc2)CC1` displayed an IC50 in data set [5] above 10000 nM.
With `CNC(=O)c1cnc2[nH]ccc2c1NC1CCN(Cc2ccccc2OC)CC1`, the figures for the IC50 in data set [11], in data set [5] and in data set [6] were 7060 nM, 406 nM and 4180 nM, respectively.
As for `COc1cccc(CN2CC[C@@H](Nc3c(C(N)=O)cnc4[nH]ccc34)C[C@H]2C)c1` (relative stereo), the IC50 in data set [11] turned out to be 57.6 nM; in data set [5], 17.2 nM; in data set [6] it was 157 nM.
On to `CNC(=O)c1cnc2[nH]ccc2c1NC1CCN(c2ccccc2)CC1`, for which, in data set [5], it took 160 nM to reach half-maximal inhibition (IC50).
With `C[C@@H]1C[C@H](Nc2c(C(N)=O)cnc3[nH]ccc23)CCN1Cc1cccc(Cl)c1` (relative stereo), the IC50 amounted to 93.8 nM in data set [11], 6.87 nM in data set [5] and 48.4 nM in data set [6].
As for `O=C(Nc1nc2cccc(-c3ccc(CN4CCS(=O)(=O)CC4)cc3)n2n1)C1CC1`, the GI50 was above 10000 nM in [1], 7190 nM in data set [2], above 10000 nM in [3] and 798 nM in data set [4]. Besides, the inhibition entry in data set [10] was “Active”.
For the compound `CNC(=O)c1cnc2[nH]ccc2c1NC1CCN(Cc2ccccc2)CC1`, the values for the IC50 in data set [5] and in data set [6] were 65 nM and 586 nM, respectively.
Regarding `CNC(=O)c1cnc2[nH]ccc2c1N[C@@H]1CCN(Cc2cccc(Cl)c2)[C@@H](C)C1` (relative stereo), the GI50 in data set [2] is 4750 nM; in data set [3] it was above 10000 nM; in data set [4] it was 232 nM.
In the same order, the values of `CNC(=O)c1cnc2[nH]ccc2c1N[C@@H]1CCN(Cc2ccc(Cl)cc2)[C@H](C)C1` are above 10000 nM, above 10000 nM and 2950 nM.
On to `CNC(=O)c1cnc2[nH]ccc2c1NC1CCCN(Cc2ccccc2)CC1` (centres undefined), for which the IC50 worked out at 89.3 nM in data set [11] and 276 nM in data set [6].
For `COc1cccc(CN2CCC(Nc3c(C(=O)NC4CCCC4)cnc4[nH]ccc34)CC2)c1`, the IC50 in data set [11] was above 10000 nM; in data set [5], 3280 nM; in [6], above 10000 nM.
As to `CNC(=O)c1cnc2[nH]ccc2c1NC1CCN(Cc2cccc(OC)c2)CC1`, the IC50 in [11] is 469 nM; in [5], 18 nM; in data set [6] it was 1210 nM.
With `CNC(=O)c1cnc2[nH]ccc2c1NC1CCCN(Cc2cccc(Cl)c2)CC1` (centres undefined), the GI50 in [1] is 7690 nM; in data set [2] it was above 10000 nM; in [3], above 10000 nM; in [4], 476 nM.
`CNC(=O)c1cnc2[nH]ccc2c1NC1CCCN(Cc2cccc(OC)c2)CC1` (centres undefined): the IC50 in [11] is 4.34 nM; in [5], 8.61 nM; in [6], 42.7 nM.
Turning to `CNC(=O)c1cnc2[nH]ccc2c1N[C@@H]1CCN(Cc2ccc(Cl)cc2)[C@H](C)C1` (relative stereo) [listing 2 of 2 here], in data set [12], the IC50 is 106 nM. Also, the inhibition at 10 µM is 70% in data set [13]; 92.9% in data set [16]; 77.1% in data set [18]; 75.7% in data set [23]; 74.8% in data set [24]. This compound also yielded a GI50 at 48 h in [14] above 10000 nM. For the same compound, the share remaining at 0.5 h, 10 µM came to 28.2% in data set [15], 11.6% in data set [17] and 80.6% in data set [25]. In addition, the values for the share remaining at 2 h, 2 µM in [19] and in [22] were 92.6% and above 100%, respectively. In addition, growth in data set [20] was halved (GI50) at 5790 nM. For the same compound, the Papp B→A at 10 µM in [21] was 3.7 ×10⁻⁶ cm/s. The compound also gave a Papp A→B at 10 µM in data set [26] of 1.9 ×10⁻⁶ cm/s.
As to `CNC(=O)c1cnc2[nH]ccc2c1N[C@H]1CCN(Cc2ccc(Cl)cc2)[C@@H](C)C1`, the results for the GI50 in data set [2], in data set [3] and in data set [4] were 475 nM, 1140 nM and 6.4 nM, respectively.
Turning to `CNC(=O)c1cnc2[nH]ccc2c1NC1CC2CCC(C1)N2Cc1ccc(Cl)cc1` (centres undefined), the GI50 in [1] worked out at 3950 nM; in data set [2], 1710 nM; in [3] it was 3900 nM; in [4], 1800 nM.
Take `CNC(=O)c1cnc2[nH]ccc2c1NC1CCN(Cc2cccc(C#N)c2)CC1`: the results for the IC50 in data set [11], in data set [5] and in [6] were 759 nM, 82 nM and 710 nM, respectively.
